73 compounds from publication PMC6792352, “Limited Chemical Structural Diversity Found to Modulate Thyroid Hormone Receptor in the Tox21 Chemical Library” (Environmental Health Perspectives, 2019) can be followed below.

Where a name gives a salt, the structure may show the parent alone. Positions of bridges follow the written chain, without caps; N, C: chain ends. Non-standard residues stand in square brackets, D forms with d. Residues, ends and D or L forms follow the SMILES beside them. *: point of attachment. X3 = CC[C@H](C)CCCCC(=O)*; Dab = NCC[C@H](N)C(=O)O A value given as a limit tells only on which side of the number the result lay.

The data set is described as follows: in vitro. To be noted: rat, gh3-tre-luc cells.

Take `CCCCCc1cc(O)c2c(c1)OC(C)(C)[C@@H]1CCC(C)=C[C@@H]21` [Tetrahydrocannabinol]: for the setting “AC50 (uM) modified / 1000”, the midpoint of cytotoxicity, the CC50 at 24 h, lay at 10.9 µM. The same measure, in the same setting: the figure for `CC(C)NNC(=O)c1ccncc1` [Iproniazid sulfate] is greater than 50 µM; for `CN1CCOCC1` [4-Methylmorpholine] it is greater than 90 µM. For the compound `CC(CC(C#N)(c1ccccc1)c1ccccc1)N(C)C` (centres unmarked) [Premethadone], the CC50 (usually the concentration that lowers cell viability or growth by half) at 24 h (AC50 (uM) modified / 1000, Tox21_110001=Tox21_112859, viability, 1 nM T3 present, 24 h) was determined as 21.6 µM. That is a double-digit micromolar value. Regarding `CCCCCCc1ccc(-c2ccc(C#N)cc2)cc1` [4-Hexyl-4'-cyanobiphenyl], under “AC50 (uM) modified / 1000”, the CC50 at 24 h is greater than 90 µM.

Take `CC1(C)[C@@H](OC(=O)CCC(=O)O)CC[C@]2(C)[C@H]3C(=O)C=C4[C@@H]5C[C@@](C)(C(=O)O)CC[C@]5(C)CC[C@@]4(C)[C@]3(C)CC[C@@H]12` [Carbenoxolone sodium]: the CC50 at 24 h (AC50 (uM) modified / 1000) was greater than 20 µM. Consider `CCN1CCCC1CNC(=O)c1cc(S(N)(=O)=O)ccc1OC` (centres unmarked) [Sulpiride], for which, for the setting “AC50 (uM) modified / 1000”, the cytotoxic concentration (CC50) at 24 h is greater than 90 µM.

In turn, `C[Si]1(C)O[Si](C)(C)O[Si](C)(C)O[Si](C)(C)O1` [Octamethylcyclotetrasiloxane] registered a CC50 at 24 h (AC50 (uM) modified / 1000) greater than 90 µM.

Compound `O=C(OCCN1CCCCC1)C(O)(c1ccccc1)c1ccccc1` [Piperilate hydrochloride] returned a 50% cytotoxic concentration (CC50) at 24 h (AC50 (uM) modified / 1000) greater than 50 µM. Still for that read-out and setting: the figure for `C=CCOCC(O)CS(=O)(=O)O` (centres unmarked) [Sodium 3-(allyloxy)-2-hydroxypropanesulphonate] is greater than 90 µM; for `C/C=C/C(=O)Oc1ccccc1[N+](=O)[O-]` [Dinocap] it is 14.3 µM; for `O=C1OC(=O)c2cccc3cccc1c23` [1H,3H-Naphtho(1,8-cd)pyran-1,3-dione] it is greater than 90 µM.

With `CCCCCCCCCCCCCCCl` [1-Chlorotetradecane], the cytotoxic concentration (CC50) at 24 h (AC50 (uM) modified / 1000, Tox21_110001=Tox21_200456, viability, 1 nM T3 present, 24 h) was greater than 90 µM. For `CCC(=O)OCCc1ccccc1` [2-Phenylethyl propionate], for the setting “AC50 (uM) modified / 1000”, the CC50 at 24 h is greater than 90 µM. `CC(C)(C)c1cc([N+](=O)[O-])cc(C(C)(C)C)c1O` [2,6-Di-tert-butyl-4-nitrophenol] gave a half-maximal cytotoxic concentration (CC50) at 24 h (AC50 (uM) modified / 1000, Tox21_110001=Tox21_301750, viability, 1 nM T3 present, 24 h) of 11 µM. This lies in the double-digit micromolar range.

Take `c1cc(-c2ccncc2)ccn1` [4,4'-Bipyridine]: under “AC50 (uM) modified / 1000”, the CC50 at 24 h was greater than 90 µM. Compound `C=O` [Formalin] showed a CC50 at 24 h (AC50 (uM) modified / 1000) greater than 100 µM. On the same count and under the same terms, the figure for `CCCCCC/C=C/CCCCCCCC(=O)O` [(E)-Hexadec-9-enoic acid] is greater than 90 µM. Compound `CCC(=O)c1ccc(Cl)cc1` [Ethyl 4-chlorophenyl ketone] came in with a CC50 at 24 h (AC50 (uM) modified / 1000, Tox21_110001=Tox21_303381, viability, 1 nM T3 present, 24 h) greater than 90 µM. Consider `Nc1ccc(F)cc1F` [2,4-Difluoroaniline], for which, under “AC50 (uM) modified / 1000”, the CC50 at 24 h was greater than 90 µM. The same measure, in the same setting: the figure for `CC(C)=CCC/C(C)=C\C#N` [(2Z)-3,7-Dimethylocta-2,6-dienenitrile] is greater than 90 µM. Still for that read-out and setting: the figure for `c1ccc(Cc2ccccc2)cc1` [Diphenylmethane] is greater than 90 µM; for `O=C(O)C(=O)Cc1c[nH]c2ccccc12` [Indole-3-pyruvic acid] it is greater than 90 µM.

Compound `CC(C)=CCC1=C(O)C(=O)c2ccccc2C1=O` [Lapachol] displayed a CC50 at 24 h (AC50 (uM) modified / 1000) of 10.7 µM. As for `CC(C)(O)CCC(C)(C)O` [2,5-Dimethylhexane-2,5-diol], for the setting “AC50 (uM) modified / 1000”, the half-maximal cytotoxic concentration (CC50) at 24 h is greater than 90 µM. Still for that read-out and setting: the figure for `CNS(=O)(=O)Cc1ccc2[nH]cc(CCN(C)C)c2c1` [Sumatriptan] is greater than 50 µM; for `Cc1ccc(N)cc1N` [2,4-Diaminotoluene] it is greater than 90 µM. The same measure, in the same setting: the figure for `Oc1cc(O)c(Cl)cc1Cl` [4,6-Dichloro-1,3-benzenediol] is greater than 90 µM; for `C[Si](O[Si](C)(C)C)O[Si](C)(C)C` it is greater than 90 µM; for `CC(=O)[C@@]1(O)CC[C@H]2[C@@H]3C=C(Cl)C4=CC(=O)[C@@H]5C[C@@H]5[C@]4(C)[C@H]3CC[C@@]21C` [Cyproterone] it is greater than 50 µM. On the same count and under the same terms, the figure for `N=C(N)c1ccc(/C=C/c2ccc(C(=N)N)cc2O)cc1` [Hydroxystilbamidine bis(methanesulfonate)] is greater than 50 µM; for `Oc1cc(O)c2c(c1)O[C@H](c1ccc(O)c(O)c1)[C@H](O)C2` [(-)-Epicatechin] it is greater than 50 µM; for `OC1OC[C@@H](O)[C@H](O)[C@H]1O` (stereo partly drawn) [D-Xylose] it is greater than 90 µM. Regarding `O=[N+]([O-])c1c(Cl)cccc1-c1c[nH]cc1Cl` [Pyrrolnitrin], the CC50 at 24 h (AC50 (uM) modified / 1000) came out at 23.7 µM. Under “AC50 (uM) modified / 1000, Tox21_110001=Tox21_200356, viability, 1 nM T3 present, 24 h”, `CC(C)Br` [2-Bromopropane] came in with a CC50 at 24 h greater than 90 µM. `Brc1cc(-c2ccc(Br)c(Br)c2Br)cc(Br)c1Br` [Polybrominated biphenyls (PBB)] yielded a CC50 at 24 h (AC50 (uM) modified / 1000) greater than 50 µM. Still for that read-out and setting: the figure for `CC(CO)Oc1ccccc1` (centres unmarked) [2-Phenoxy-1-propanol] is greater than 90 µM; for `CC(=O)Oc1ccc([N+](=O)[O-])cc1CCl` [2-Acetoxy-5-nitrobenzyl chloride] it is 67 µM; for `COc1ccc(/C=C/C(=O)O)cc1` [4-Methoxy-(2E)-cinnamic acid] it is greater than 50 µM. On the same count and under the same terms, the figure for `CCCCCCCCCCCCCCNCCO` [Myralact] is greater than 50 µM. On the same count and under the same terms, the figure for `Nc1cccc2c1CN(C1CCC(=O)NC1=O)C2=O` (centres unmarked) [Lenalidomide] is greater than 50 µM; for `Cc1cc(C)c(N)cc1C` [2,4,5-Trimethylaniline] it is greater than 90 µM; for `CCCCC(=O)O[C@H]1CC[C@H]2[C@@H]3CCc4cc(O)ccc4[C@H]3CC[C@]12C` [Estradiol valerate] it is 41.5 µM. Regarding `CC(=O)OCC(C)OC(C)=O` (centres unmarked) [Propylene glycol diacetate], under “AC50 (uM) modified / 1000”, the cytotoxic concentration (CC50) at 24 h is greater than 90 µM. The same measure, in the same setting: the figure for `CCN(CC)CCOCCOC(=O)C1(c2ccccc2)CCCC1` [Carbetapentane] is greater than 50 µM; for `NCC(O)c1cccc(O)c1` (centres unmarked) [Norfenefrine hydrochloride] it is greater than 50 µM. Still for that read-out and setting: the figure for `O=C(N[C@H](c1ccccc1)[C@@H]1CN2CCC1CC2)c1c(Cl)ccc(C(F)(F)F)c1Cl` [SSR 103800] is 9.74 µM; for `COc1cc(O)c(C(=O)c2ccccc2)cc1S(=O)(=O)O` [Sulisobenzone] it is greater than 90 µM; for `O=C(Cl)c1ccccc1[N+](=O)[O-]` [2-Nitrobenzoyl chloride] it is greater than 90 µM. Still for that read-out and setting: the figure for `CC[C@H](C)CCCCC(=O)N[C@@H](CCN)C(=O)N[C@H](C(=O)N[C@@H](CCN)C(=O)N[C@H]1CCNC(=O)[C@H]([C@@H](C)O)NC(=O)[C@H](CCN)NC(=O)[C@H](CCN)NC(=O)[C@H](CC(C)C)NC(=O)[C@@H](CC(C)C)NC(=O)[C@H](CCN)NC1=O)[C@@H](C)O` [Colistin A] (X3-[Dab]T[Dab][Dab][Dab][dL]L[Dab][Dab]T; lactam 4-C) is greater than 50 µM. On to `CCOC(=N)CC(=O)OCC` [Ethyl 3-ethoxy-3-iminopropionate hydrochloride], for which the 50% cytotoxic concentration (CC50) at 24 h (AC50 (uM) modified / 1000) was greater than 90 µM. On the same count and under the same terms, the figure for `Cc1ccc2c(c1)C1CN(C)CCC1N2` (centres unmarked) [Dicarbine] is greater than 50 µM. For `CCOP(=O)(OCC)O/C(=C\Cl)c1ccc(Cl)cc1Cl` [Chlorfenvinphos], the CC50 at 24 h was greater than 50 µM (AC50 (uM) modified / 1000, Tox21_110001=Tox21_112069, viability, 1 nM T3 present, 24 h) and greater than 90 µM (AC50 (uM) modified / 1000, Tox21_110001=Tox21_301573, viability, 1 nM T3 present, 24 h). Consider `O=C1c2ccccc2C(=O)C1c1ccc(F)cc1` [Fluindione], for which the cytotoxic concentration (CC50) at 24 h (AC50 (uM) modified / 1000) is greater than 50 µM.

Compound `CCCn1c(=O)[nH]c(=O)c2[nH]cnc21` [Enprofylline] registered a CC50 at 24 h (AC50 (uM) modified / 1000) greater than 50 µM.

Where the note is “AC50 (uM) modified / 1000”, `CC(=O)C1=C(C)[C@@H]2C[C@@]3(C1)[C@H](C)CC[C@H]3C2(C)C` [Acetyl cedrene] showed a CC50 at 24 h of 56.9 µM. In other words, the double-digit micromolar range. Still for that read-out and setting: the figure for `Cc1ccc(NC=O)c(C)c1` [N-(2,4-Dimethylphenyl)formamide] is greater than 90 µM; for `CC(=O)SCC(CC(=O)c1ccc(C)cc1)C(=O)O` (centres unmarked) [Esonarimod] it is greater than 50 µM. Consider `O=C(O)c1cc(C(=O)O)cc(S(=O)(=O)O)c1` [Sodium 5-sulfoisophthalate], for which, under “AC50 (uM) modified / 1000”, the CC50 at 24 h was greater than 90 µM.

For `CC(C)c1ccc(O)cc1` [4-Isopropylphenol], the 50% cytotoxic concentration (CC50) at 24 h (AC50 (uM) modified / 1000, Tox21_110001=Tox21_301323, viability, 1 nM T3 present, 24 h) was greater than 90 µM. Under “AC50 (uM) modified / 1000”, `COC(=O)CS` [Methyl thioglycolate] registered a CC50 at 24 h greater than 90 µM. Still for that read-out and setting: the figure for `OC1OCCOC1O` (centres unmarked) [1,4-Dioxane-2,3-diol] is greater than 90 µM; for `CC(C)SCc1ccco1` [Furfuryl isopropyl sulfide] it is greater than 40 µM. `CC(C)c1ccc(C(=O)NC(=N)N)cc1S(C)(=O)=O` [Cariporide mesylate] displayed a CC50 at 24 h (AC50 (uM) modified / 1000) greater than 70 µM. Same read-out and setting: the figure for `O=C(O)/C=C/c1ccccc1` [E-Cinnamic acid] is greater than 90 µM; for `CN1CCN(CCCN2c3ccccc3Sc3ccc(C(F)(F)F)cc32)CC1` [Fluoperazine dihydrochloride] it is 7.86 µM. Still for that read-out and setting: the figure for `CCOC(=O)OC1=C(c2cc(C)ccc2C)C(=O)N[C@]12CC[C@@H](OC)CC2` [Spirotetramat] is greater than 90 µM; for `Cc1ccc(-c2ncc(Cl)cc2-c2ccc(S(C)(=O)=O)cc2)cn1` [Etoricoxib] it is greater than 50 µM. The same measure, in the same setting: the figure for `C=CCOC(=O)c1ccccc1C(=O)OCC=C` [Diallyl phthalate] is greater than 90 µM; for `CC1(C)C(O)C(C)(C)C1O` (centres unmarked) [2,2,4,4-Tetramethylcyclobutane-1,3-diol] it is greater than 90 µM.

Under “AC50 (uM) modified / 1000, Tox21_110001=Tox21_302005, viability, 1 nM T3 present, 24 h”, `CCOC(=O)N(C)C(=O)CSP(=S)(OCC)OCC` [Mecarbam] registered a cytotoxic concentration (CC50) at 24 h greater than 90 µM. `C/C=C(\C)C(=O)OCCc1ccccc1` [Phenethyl tiglate] displayed a half-maximal cytotoxic concentration (CC50) at 24 h (AC50 (uM) modified / 1000) greater than 90 µM.

`CC(C)(S)[C@@H](N)C(=O)O` [D-Penicillamine] returned a half-maximal cytotoxic concentration (CC50) at 24 h (AC50 (uM) modified / 1000) greater than 50 µM.
